From patent publication US12370167B2, “Blood-brain barrier permeability regulator and use thereof” (ZHEJIANG UNIVERSITY, priority 2019, dated 2025) come the findings set out here.

Data set [1] concerns U87 MG glioma cells. The experiment in a line: Cytotoxicity on U87 MG glioma cells, tetrazolium blue colorimetric method. Format: cell-based. The conditions noted are these: paclitaxel 0.5 μg/mL, siRNA 100 nM, 48 hours. How it is done: FIG. 1: In vitro cell inhibition rate against U87 MG glioma cells of the Angiopep-2-modified glycolipid nano-delivery system. 200 μL suspensions of well-grown U87 MG glioma cells were inoculated into a 96-well plate at a density of 5×10^3/well. After adherent growth of the cells, an Angiopep-2-modified glycolipid nano-delivery system was added, with paclitaxel at a concentration of 0.5 μg/mL and the siRNA at a concentration of 100 nM. The untreated cells were used as a blank control. The cell growth inhibition rate was measure with a tetrazolium blue colorimetric method (n=3).
U87 MG glioma cells were used as the model cell to assess the growth inhibitory effect of the Angiopep-2-modified glycolipid nano-delivery system on tumor cells with a tetrazolium blue colorimetric method. The Angiopep-2-modified glycolipid nano-delivery system was obtained according to the procedures as described in the above sections of 1 and 2. 200 μL suspensions of well-grown U87 MG cells were inoculated into a 96-well plate at a density of 5×10^3/well, and were incubated at 37° C. and 5% CO2 until the cells adhere. The Angiopep-2-modified glycolipid nano-delivery system was added, with paclitaxel at a concentration of […] and the siRNA at a concentration of 100 nM. The untreated cells were used as a blank control. […] Absorbance at 570 nm was measured with a microplate reader. […]

Data set [2] has as its system VEGF mRNA in U87 MG cells. The experiment in a line: Down-regulation of tumor cell VEGF mRNA expression, qt-PCR. The conditions noted are these: paclitaxel 0.5 μg/mL, siRNA 100 nM, 48 hours, ΔΔCt method, n=3. Format: cell-based. The protocol: FIG. 2: In vitro down-regulation of expression of U87 MG cell VEGF mRNA by the Angiopep-2-modified glycolipid nano-delivery system. 2 mL suspensions of well-grown U87 MG glioma cells were inoculated into a 6-well plate at a density of 4×10^5/well. After adherent growth of the cells, an Angiopep-2-modified glycolipid nano-delivery system was added, with paclitaxel at a concentration of 0.5 μg/mL and the siRNA at a concentration of 100 nM. The incubation was carried out for 48 hours. An untreated group was used as the blank control. The RNA in the cells was extracted with TRIzol. The relative expression level of tumor cell VEGF mRNA was measure with qt-PCR and calculated with a ΔΔCt method (n=3).
The Angiopep-2-modified glycolipid nano-delivery system was obtained according to the procedures as described in the above sections of 1 and 2. 2.0 mL suspensions of well-grown U87 MG cells were inoculated into a 6-well plate at a density of 4×10^5/well, and were incubated at 37° C. and 5% CO2 until the cells adhere. The Angiopep-2-modified glycolipid nano-delivery system was added, with paclitaxel at a concentration of 0.5 μg/mL and the siRNA at a concentration of 100 nM. The incubation was carried out for 48 hours. The untreated cells were used as a blank control. Each of the group was repeated 3 times. The tumor cell VEGF expression level was measured with qt-PCR.

`CC(=O)O[C@H]1C(=O)[C@@]2(C)[C@H]([C@H](OC(=O)c3ccccc3)[C@]3(O)C[C@H](OC(=O)[C@H](O)[C@@H](NC(=O)c4ccccc4)c4ccccc4)C(C)=C1C3(C)C)[C@]1(OC(C)=O)CO[C@@H]1C[C@@H]2O` [paclitaxel]: in data set [1] (Homo sapiens, U-87 MG, n=3, read-out: cell inhibition rate), the inhibition at 0.5 µg/mL was found to be 18.7 ± 5.4%. The “expression level of VEGF mRNA (relative)” value in data set [2] was 78.5%.
With “siRNA: siRNA, sense strand 5′-GUCUAUCAGCGCAGCUACUTT-3′ (SEQ ID NO: 1), antisense strand 5′-AGUAGCUGCGCUGAUAGACTT-3′ (SEQ ID NO: 2) (sense GUCUAUCAGCGCAGCUACUNN; antisense AGUAGCUGCGCUGAUAGACNN; listed as RNA, chemistry not given here)”, the cell inhibition rate in data set [1] (n=3) amounted to 5.5±0.5%. Also, the “expression level of VEGF mRNA (relative)” value in data set [2] was found to be 92.9%.
